Source: patent US4183939A, “Glaucine analgesic method” (priority 1978, dated 1980)
Counter-ions that a name gives are not always drawn. Like-named read-outs stand apart in the source and are kept apart here.

Assays:
[1] = system: mice; experiment: acute lethality (LD50) in mice; assay type: in vivo; conditions: mortality within 72 hours
Description: (§1) In other operations, various dosages of d,l-glaucine phosphate were administered to groups of mice by the oral route or by intraperitoneal injection, and the dosage which is lethal to 50 percent of the mice (LD50) was calculated from the mortality observations within 72 hours after administration.

[2] = system: mice; assay type: in vivo; conditions: for jumping behavior after naloxone (in words): naloxone 100 mg/kg intraperitoneal; for stimulation and Straub tail: increasing doses on two consecutive days, d,l-glaucine phosphate highest dose 100 mg/kg
Description: Physical dependency liability was evaluated in mice by the procedure of Saelens, et al., Aoch. Int. Pharmacodynam, 190:213-218, 1971. In this procedure, mice are administered increasing doses of a test compound at intervals on two consectuive days. The last dosage on the second day is followed by intraperitoneal injection of the morphine antagonist, naloxone, at a dosage of 100 mg/kg, and the mice are observed for characteristic jumping behavior indicative of opiate withdrawals or morphine antaganism.

[3] = system: mice; experiment: phenyl-p-quinone mouse writhing test (oral analgesic activity); assay type: in vivo; conditions: orally 30 minutes prior to phenyl-p-quinone challenge; for ED50: Mus musculus, po, 0.5 h
Description: Test compounds were evaluated for oral analgesic activity in the phenyl-p-quinone mouse writhing test of Hendershot & Forsaith, J. Pharmacol. Exptl. Therap. 125(3), 237 (1959). Test compounds were administered orally 30 minutes prior to the phenyl-p-quinone challenge. […]

[4] = acute lethality (LD50) in mice; assay type: in vivo; conditions: mouse, in vivo, mortality within 72 hours
Description: as §1

[5] = system: monkeys; experiment: abuse potential: self-administration in codeine-habituated monkeys; assay type: in vivo; conditions: codeine 100 micrograms/kg per injection; d,l-glaucine phosphate substituted at 50, 100, 200 and 400 micrograms/kg per injection
From the text: The abuse potential of d,l-glaucine phosphate was studied in two monkeys in a procedure similar to that described by Deneau, et al., Psychopharmacologia 16(1):30-48, 1969.
In this procedure, the test monkeys are restrained and catheter inserted into the external jugular vein for injection of test substances in response to pressing a bar lever by the monkey. The test monkeys are first habituated to self-administer codeine at a rate of 100 micrograms/kilograms per injection. The self-administration rate of the two monkeys so trained and habituated was about 100 to 150 lever pushes per two hour session at the 100 microgram codeine level. […]

[6] = assay type: in vivo; conditions: intraperitoneal injection 45-60 minutes before testing
[7] = system: mice; experiment: animal or person; assay type: in vivo; conditions: Mus musculus, sc, 0.5 h; first evaluation; subcutaneous injection 30 minutes before testing; read-out: ED50 (hot plate)
Description: The test compounds were administered by subcutaneous injection 30 minutes before testing.

[8] = in vivo; cited from earlier work
[9] = system: mice; experiment: protecting mice against writhing induced by intraperitoneal injection of aqueous 0.1 percent hydrochloric acid; assay type: in vivo; conditions: subcutaneous, 15 minutes before HCl; for ED50: Mus musculus, sc
Description: l-Glaucine hydrobromide and d-glaucine hydrobromide were evaluated for analgesic activity in protecting mice against characteristic writhing induced by intraperitoneal injection of aqueous 0.1 percent hydrochloric acid, injected 15 minutes after subcutaneous injection of a test compound.

[10] = plasma concentration levels of glaucine in guinea pigs; assay type: in vivo; conditions: for concentration at 0.25 h: 15 minutes after dosing, l-isomer orally 5 mg/kg, read-out: plasma glaucine level after 15 minutes
Description: Test compounds were administered to guinea pigs, and blood samples were collected at 15 minute intervals and analyzed to determine plasma concentration levels of glaucine.
Similar results were obtained with d- and l-glaucine phosphate, with l-glaucine phosphate producing from 3 to 6 or more times the levels obtained with the d-isomer throughout a 120 minute period.

[11] = system: mice; conditions: cited from earlier work
[12] = in vivo; cited from earlier work; remark: listed apart in the source
[13] = in vivo; cited from earlier work; remark: listed apart in the source
[14] = naloxone 100 mg/kg intraperitoneal after last dose on second day

Compound: COc1cc2c(cc1OC)-c1c(OC)c(OC)cc3c1C(C2)N(C)CC3 (racemic) [d,l-glaucine lactate]
- LD50, intraperitoneal ([1]; intraperitoneal): 178 mg/kg
- LD50, oral ([1]; oral, 4320 min): 383 mg/kg
- jumping behavior after naloxone (in words) [2]: no jumping in any of the ten mice tested
- oral ED50 (phenyl-p-quinone writhing) ([3]; 30 min): 25.5 mg/kg

Compound: COc1cc2c(cc1OC)-c1c(OC)c(OC)cc3c1C(C2)N(C)CC3 (racemic) [d,l-glaucine phosphate]
- LD50 at 72 h ([4]; ip, intraperitoneal, read-out: LD50, intraperitoneal): 178 mg/kg
- LD50 at 72 h ([4]; po, read-out: LD50, oral): ≥ 681 mg/kg
- self-administration response rate [5]: 10-20 responses/two hour session
- stimulation and Straub tail [2]: no Straub tail at the highest dose
- jumping behavior after naloxone (in words) ([2]; listed as d,l-Glaucine phosphate 1:11/2 salt): no jumping behavior in any of the eight mice tested
- ED50 [3]: 23 mg/kg

Compound: COc1ccc2c3c1O[C@H]1[C@@H](O)C=C[C@H]4[C@@H](C2)N(C)CC[C@@]341 [codeine phosphate]
- stimulation and Straub tail [2]: produced Straub tail and stimulation
- mice jumping after naloxone [2, 14]: 2 of 6
- total jumps after naloxone [2, 14]: 23 jumps total
- ED50 [3]: 21.1 mg/kg
- ED50 (tail pinch) [6]: 6.8 mg/kg

Compound: COc1ccc2c3c1O[C@H]1[C@@H](O)C=C[C@H]4[C@@H](C2)N(C)CC[C@@]341 [codeine]
- self-administration response rate [5]: 100-150 responses/two hour session

Compound: CCC(=O)O[C@](Cc1ccccc1)(c1ccccc1)[C@H](C)CN(C)C [d-Propoxyphene·HCl]
- ED50 (tail pinch) [6]: 16.7 mg/kg

Compound: COc1cc2c(cc1OC)-c1c(OC)c(OC)cc3c1[C@H](C2)N(C)CC3 [d-glaucine hydrobromide]
- ED50 [7]: 23.8 mg/kg
- antitussive activity [8]: antitussive activity
- ED50 [9]: 12.9 mg/kg
- 95 percent confidence limits of ED50 (HCl writhing) [9]: 5.24 to 31.8 mg/kg
- plasma level after initial peak, throughout the 90 minute period ([10]; after initial peak at 15 minutes, to 90 minutes): 20-40 nanograms/ml
- concentration at 0.25 h ([10]; guinea pig, plasma, po): ~50 ng/mL
- Tmax ([10]; guinea pig, plasma, read-out: time of initial peak plasma level (converted)): 15 min
- ED50 [3]: 34 mg/kg
- analgesic activity (tail pinch) [6]: No analgesic activity was observed

Compound: COc1cc2c(cc1OC)-c1c(OC)c(OC)cc3c1[C@H](C2)N(C)CC3 [d-glaucine]
- hexenal and chloral hydrate sleep time [11]: prolongs hexenal and chloral hydrate sleep time
- adrenolytic activity [12]: adrenolytic activity
- doses with analgesic activity [13]: 50 to 100 mg/kg

Compound: COc1cc2c(cc1OC)-c1c(OC)c(OC)cc3c1[C@@H](C2)N(C)CC3 [l-glaucine hydrobromide]
- ED50 [7]: 12.7 mg/kg
- ED50 [9]: 5.99 mg/kg
- 95 percent confidence limits of ED50 (HCl writhing) [9]: 2.43 to 14.8 mg/kg
- concentration at 0.25 h ([10]; guinea pig, plasma, po): ~40 ng/mL
- concentration at 1.5 h ([10]; guinea pig, plasma, po, orally 5 mg/kg, end of 90 minutes test period, read-out: plasma glaucine level at end of test period): ~200 ng/mL
- Cmax ([10]; guinea pig, plasma, po, orally 5 mg/kg, one hour after administration, read-out: peak plasma glaucine level): > 350 ng/mL
- time of peak plasma level ([10]; orally 5 mg/kg): one
- ED50 [3]: 17 mg/kg
- analgesic activity (tail pinch) [6]: No analgesic activity was observed
